Laboratory results from US10251395B2, “Substituted furano-/thienocycloalkylamino-2-pyrimidine derivatives and use thereof for controlling undesired plant growth” (Bayer CropScience Aktiengesellschaft, priority 2015, dated 2019).

Tests used:
logP (HCOOH) = format: physicochemical
Excerpt: Table 2 (physicochemical characterization of selected synthesis examples)

Abutilon theophrasti [1] = assay: Pre-emergence herbicidal effect; format: in vivo; conditions: Dosage 320 g/ha, scored visually after 3 weeks
In short: (§1)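 Pre-emergence soil-surface application of compound as WP or EC in water (600 to 800 L/ha, 0.2% wetting agent) to freshly sown, soil-covered seeds in sandy loam. After 3 weeks under greenhouse conditions, percent activity rated by eye versus untreated plants, from 0% (no effect) to 100% (death).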

Amaranthus retroflexus [2] = assay: Pre-emergence herbicidal effect; format: in vivo; conditions: scored visually after 3 weeks
In short: as §1

Echinochloa crus-galli [3] = assay: Pre-emergence herbicidal effect; format: in vivo; conditions: scored visually after 3 weeks
In short: as §1

Lolium multiflorum = assay: Pre-emergence herbicidal effect; format: in vivo; conditions: Dosage 320 g/ha, scored visually after 3 weeks
In short: as §1

Matricaria inodora [4] = assay: Pre-emergence herbicidal effect; format: in vivo; conditions: scored visually after 3 weeks
In short: as §1

Polygonum convolvulus [5] = assay: Pre-emergence herbicidal effect; format: in vivo; conditions: scored visually after 3 weeks
In short: as §1

Setaria viridis [6] = assay: Pre-emergence herbicidal effect; format: in vivo; conditions: scored visually after 3 weeks
In short: as §1

Stellaria media [7] = assay: Pre-emergence herbicidal effect; format: in vivo; conditions: scored visually after 3 weeks
In short: as §1

Veronica persica [8] = assay: Pre-emergence herbicidal effect; format: in vivo; conditions: scored visually after 3 weeks
In short: as §1

Viola tricolor [9] = assay: Pre-emergence herbicidal effect; format: in vivo; conditions: scored visually after 3 weeks
In short: as §1

Abutilon theophrasti [10] = assay: Post-emergence herbicidal effect; format: in vivo; conditions: assessed visually after about 3 weeks vs untreated controls
In short: (§2)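 Sow in sandy loam; grow in greenhouse 2–3 wk; spray one-leaf plants with WP or EC suspension/emulsion (600–800 L/ha water, 0.2% wetter); hold ~3 wk under optimal conditions; rate visually vs untreated (0–100%).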

Echinochloa crus-galli [11] = assay: Post-emergence herbicidal effect; format: in vivo; conditions: 320 g/ha, assessed visually after about 3 weeks vs untreated controls
In short: as §2

Polygonum convolvulus [12] = assay: Post-emergence herbicidal effect; format: in vivo; conditions: 320 g/ha, assessed visually after about 3 weeks vs untreated controls
In short: as §2

Stellaria media [13] = assay: Post-emergence herbicidal effect; format: in vivo; conditions: 320 g/ha, assessed visually after about 3 weeks vs untreated controls
In short: as §2

Alopecurus myosuroides = assay: Pre-emergence herbicidal effect; format: in vivo; conditions: Dosage 320 g/ha, scored visually after 3 weeks
In short: as §1

Amaranthus retroflexus [14] = assay: Post-emergence herbicidal effect; format: in vivo; conditions: assessed visually after about 3 weeks vs untreated controls
In short: as §2

Ipomoea purpurea = assay: Post-emergence herbicidal effect; format: in vivo; conditions: assessed visually after about 3 weeks vs untreated controls
In short: as §2

Matricaria inodora [15] = assay: Post-emergence herbicidal effect; format: in vivo; conditions: assessed visually after about 3 weeks vs untreated controls
In short: as §2

Setaria viridis [16] = assay: Post-emergence herbicidal effect; format: in vivo; conditions: 320 g/ha, assessed visually after about 3 weeks vs untreated controls
In short: as §2

Veronica persica [17] = assay: Post-emergence herbicidal effect; format: in vivo; conditions: 320 g/ha, assessed visually after about 3 weeks vs untreated controls
In short: as §2

Viola tricolor [18] = assay: Post-emergence herbicidal effect; format: in vivo; conditions: assessed visually after about 3 weeks vs untreated controls
In short: as §2

Compound	logP (HCOOH) (logP (HCOOH))	ABUTH pre-emergence efficacy (herbicidal activity) (Abutilon theophrasti [1])	AMARE pre-emergence efficacy (herbicidal activity) (Amaranthus retroflexus [2]; Dosage 320 g/ha)	ECHCG pre-emergence efficacy (herbicidal activity) (Echinochloa crus-galli [3]; Dosage 320 g/ha)	MATIN pre-emergence efficacy (herbicidal activity) (Matricaria inodora [4]; Dosage 320 g/ha)	POLCO pre-emergence efficacy (herbicidal activity) (Polygonum convolvulus [5]; Dosage 320 g/ha)	SETVI pre-emergence efficacy (herbicidal activity) (Setaria viridis [6]; Dosage 320 g/ha)	STEME pre-emergence efficacy (herbicidal activity) (Stellaria media [7]; Dosage 320 g/ha)	VERPE pre-emergence efficacy (herbicidal activity) (Veronica persica [8]; Dosage 320 g/ha)	VIOTR pre-emergence efficacy (herbicidal activity) (Viola tricolor [9]; Dosage 320 g/ha)	post-emergence efficacy ABUTH (Abutilon theophrasti [10]; 320 g/ha)	post-emergence efficacy ECHCG (Echinochloa crus-galli [11])	post-emergence efficacy STEME (Stellaria media [13])	also measured
Cc1cc2c(s1)CCC2Nc1ncc(S(=O)(=O)C(C)(C)C)c(N)n1 (racemic) [compound 77]	solid; logP (HCOOH): 2.67; 1H NMR (CDCl3, 400 MHZ, δ in ppm): 1.40 (s, 9H, 3*3H	–	–	–	–	–	–	–	–	–	–	–	–	–
Nc1nc(NC2CCc3ccsc32)ncc1[N+](=O)[O-] (racemic) [compound 32]	solid; m.p.: 189.5° C.; logP (HCOOH): 1.53;	–	–	–	–	–	–	–	–	–	–	–	–	–
Cc1cc2c(o1)CC(C)(C)CC2Nc1ncc(S(C)(=O)=O)c(N)n1 (racemic) [compound 15]	oily; logP (HCOOH): 2.36; 1H NMR (CDCl3, 400 MHZ, δ in ppm): 1.05 (s, 3H, 3H of	–	–	–	–	–	–	–	–	–	–	–	–	–
Cc1cc2c(s1)CCC2Nc1ncc(S(C)(=O)=O)c(N)n1 (racemic) [compound 4]	–	100%	100%	100%	100%	100%	100%	100%	100%	100%	90%	100%	100%	AMARE pre-emergence efficacy (herbicidal activity) (Amaranthus retroflexus [2]; Dosage 80 g/ha): 100%; LOLMU pre-emergence efficacy (herbicidal activity) (Lolium multiflorum): 100%; MATIN pre-emergence efficacy (herbicidal activity) (Matricaria inodora [4]; Dosage 80 g/ha): 100%; SETVI pre-emergence efficacy (herbicidal activity) (Setaria viridis [6]; Dosage 80 g/ha): 100%; STEME pre-emergence efficacy (herbicidal activity) (Stellaria media [7]; Dosage 80 g/ha): 100%; VERPE pre-emergence efficacy (herbicidal activity) (Veronica persica [8]; Dosage 80 g/ha): 100%; VIOTR pre-emergence efficacy (herbicidal activity) (Viola tricolor [9]; Dosage 80 g/ha): 100%; post-emergence efficacy ABUTH (Abutilon theophrasti [10]; 80 g/ha): 80%; post-emergence efficacy POLCO (Polygonum convolvulus [12]): 100%
CCCS(=O)(=O)c1cnc(NC2CCCc3sccc32)nc1N (stereo not shown) [compound 37, 5-Propylsulfonyl-N2-(4,5,6,7-tetrahydrobenzothiophen-4-yl)pyrimidine-2,4-diamine]	–	–	–	–	–	–	–	–	–	–	–	–	–	chromatographic logP (logP (HCOOH); HCOOH (formic acid)): 2.33
O=C1CCCc2nc(NC3CCCc4occc43)ncc21 (racemic) [compound 54]	oily; logP (HCOOH): 2.35; 1H NMR (CDCl3, 400 MHZ, δ in ppm): 1.80-2.00 (m, 4H,	–	–	–	–	–	–	–	–	–	–	–	–	–
CC(=NO)c1cnc(NC2CCCc3sc(C)cc32)nc1N (racemic) [compound 341]	–	70%	100%	100%	100%	100%	100%	100%	100%	100%	90%	70%	60%	ALOMY pre-emergence efficacy (herbicidal activity) (Alopecurus myosuroides): 70%; AMARE pre-emergence efficacy (herbicidal activity) (Amaranthus retroflexus [2]; Dosage 80 g/ha): 100%; ECHCG pre-emergence efficacy (herbicidal activity) (Echinochloa crus-galli [3]; Dosage 80 g/ha): 60%; MATIN pre-emergence efficacy (herbicidal activity) (Matricaria inodora [4]; Dosage 80 g/ha): 100%; POLCO pre-emergence efficacy (herbicidal activity) (Polygonum convolvulus [5]; Dosage 80 g/ha): 70%; SETVI pre-emergence efficacy (herbicidal activity) (Setaria viridis [6]; Dosage 80 g/ha): 90%; STEME pre-emergence efficacy (herbicidal activity) (Stellaria media [7]; Dosage 80 g/ha): 100%; VERPE pre-emergence efficacy (herbicidal activity) (Veronica persica [8]; Dosage 80 g/ha): 100%; VIOTR pre-emergence efficacy (herbicidal activity) (Viola tricolor [9]; Dosage 80 g/ha): 100%; post-emergence efficacy ABUTH (Abutilon theophrasti [10]; 80 g/ha): 80%; post-emergence efficacy AMARE (Amaranthus retroflexus [14]; 80 g/ha): 80%; post-emergence efficacy AMARE (Amaranthus retroflexus [14]; 320 g/ha): 90%; post-emergence efficacy PHBPU (Ipomoea purpurea; 80 g/ha): 80%; post-emergence efficacy PHBPU (Ipomoea purpurea; 320 g/ha): 90%; post-emergence efficacy MATIN (Matricaria inodora [15]; 80 g/ha): 60%; post-emergence efficacy MATIN (Matricaria inodora [15]; 320 g/ha): 90%; post-emergence efficacy SETVI (Setaria viridis [16]): 60%; post-emergence efficacy VERPE (Veronica persica [17]): 100%; post-emergence efficacy VIOTR (Viola tricolor [18]; 80 g/ha): 90%; post-emergence efficacy VIOTR (Viola tricolor [18]; 320 g/ha): 90%
Cc1cc2c(s1)CCCC2Nc1ncc(S(=O)(=O)C(C)(C)C)c(N)n1 (racemic) [compound 76]	solid; logP (HCOOH): 3.01; 1H NMR (CDCl3, 400 MHZ, δ in ppm): ): 1.40 (s, 9H,	–	–	–	–	–	–	–	–	–	–	–	–	–
Nc1nc(NC2CCCc3sc(Cl)cc32)ncc1C(F)(F)F (racemic) [compound 22]	–	80%	100%	100%	100%	100%	100%	100%	100%	100%	90%	90%	90%	LOLMU pre-emergence efficacy (herbicidal activity) (Lolium multiflorum): 100%; post-emergence efficacy AMARE (Amaranthus retroflexus [14]; 320 g/ha): 100%; post-emergence efficacy POLCO (Polygonum convolvulus [12]): 90%; post-emergence efficacy VERPE (Veronica persica [17]): 90%; post-emergence efficacy VIOTR (Viola tricolor [18]; 320 g/ha): 90%
